Measured values as given in patent US20240150377A1, “MODULATORS OF CYSTIC FIBROSIS TRANSMEMBRANE CONDUCTANCE REGULATOR” (VERTEX PHARMACEUTICALS INCORPORATED, priority 2020, published 2024).
Like-named read-outs stand apart in the source and are kept apart here.

Target: CFTR (Homo sapiens, UniProt P13569)
Experiment: Membrane potential dye, Enteroid Assay B
Type: cell-based
Settings: for Ent. B Max Activity: chloride transport as % of triple combination control (Enteroid Assay B); for EC50: read-out: Ent. B EC50
How it was run: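 Human intestinal enteroids were treated with compound in maintenance medium for 18-24 h at 37° C, then loaded with methyl oxonol membrane-potential dye (25 min, room temperature). Chloride transport was triggered in chloride-free buffer with 10 μM forskolin, 100 μM IBMX and 300 nM Compound III, fluorescence read 15 min; expressed as % of triple-combination control.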

[1] = Table 8, human enteroid cells, 18-24 hours, acute 10 μM forskolin and 300 nM ivacaftor

Sequence of CFTR (P13569 with tags, fused parts or gaps DEL508-508): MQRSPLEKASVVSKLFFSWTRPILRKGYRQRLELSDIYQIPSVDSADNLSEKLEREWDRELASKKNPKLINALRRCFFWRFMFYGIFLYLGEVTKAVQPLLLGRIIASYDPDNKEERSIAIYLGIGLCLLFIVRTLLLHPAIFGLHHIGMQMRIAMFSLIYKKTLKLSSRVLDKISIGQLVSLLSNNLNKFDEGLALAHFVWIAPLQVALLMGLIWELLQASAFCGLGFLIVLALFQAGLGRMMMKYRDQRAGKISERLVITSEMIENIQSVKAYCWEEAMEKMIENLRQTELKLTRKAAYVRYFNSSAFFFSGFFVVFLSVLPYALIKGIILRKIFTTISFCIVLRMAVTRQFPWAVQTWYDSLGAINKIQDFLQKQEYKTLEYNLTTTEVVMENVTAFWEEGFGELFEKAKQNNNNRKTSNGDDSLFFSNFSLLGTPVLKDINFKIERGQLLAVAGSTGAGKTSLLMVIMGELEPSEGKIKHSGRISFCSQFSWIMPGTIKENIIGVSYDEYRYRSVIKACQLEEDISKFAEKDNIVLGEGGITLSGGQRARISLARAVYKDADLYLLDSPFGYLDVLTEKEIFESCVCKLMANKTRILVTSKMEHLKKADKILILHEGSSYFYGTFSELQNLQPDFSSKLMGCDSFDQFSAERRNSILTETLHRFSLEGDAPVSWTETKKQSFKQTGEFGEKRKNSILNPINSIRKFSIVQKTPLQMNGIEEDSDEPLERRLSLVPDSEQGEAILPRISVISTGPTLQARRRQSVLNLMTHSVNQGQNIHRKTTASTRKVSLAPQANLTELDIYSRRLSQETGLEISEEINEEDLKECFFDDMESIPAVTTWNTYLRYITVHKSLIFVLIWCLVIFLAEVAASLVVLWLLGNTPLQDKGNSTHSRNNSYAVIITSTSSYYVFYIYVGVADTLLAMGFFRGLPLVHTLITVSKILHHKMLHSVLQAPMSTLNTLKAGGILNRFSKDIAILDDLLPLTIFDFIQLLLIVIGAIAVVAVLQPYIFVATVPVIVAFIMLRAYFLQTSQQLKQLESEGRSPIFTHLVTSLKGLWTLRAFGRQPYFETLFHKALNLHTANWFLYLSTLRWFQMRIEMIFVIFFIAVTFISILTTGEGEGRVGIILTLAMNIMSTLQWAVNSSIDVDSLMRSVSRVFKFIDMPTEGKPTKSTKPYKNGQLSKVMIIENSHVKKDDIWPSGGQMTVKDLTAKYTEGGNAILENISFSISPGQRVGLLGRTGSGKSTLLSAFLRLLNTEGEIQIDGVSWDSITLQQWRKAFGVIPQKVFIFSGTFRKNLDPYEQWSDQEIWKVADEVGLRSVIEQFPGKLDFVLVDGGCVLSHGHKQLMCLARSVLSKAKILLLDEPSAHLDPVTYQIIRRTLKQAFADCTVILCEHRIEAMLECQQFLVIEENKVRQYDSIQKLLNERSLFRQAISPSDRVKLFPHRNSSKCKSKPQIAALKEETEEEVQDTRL

Row | SMILES | Ent. B Max Activity (Table 8) | EC50 [1] | Ent. B Max Activity (%) (Table 9) | EC50 (Table 9)
1 | Cc1cccc(C)c1-c1cc2nc(n1)NS(=O)(=O)c1cccc(c1)C(=O)N(Cc1ccc(C(C)(C)O)cc1)[C@H](CC(C)(C)O)CO2 [Compound 663] | +++ (+++ is >60%) | < 1 µM |  | 
2 | Cc1cccc(C)c1-c1cc2nc(n1)NS(=O)(=O)c1cccc(c1)C(=O)N(CC1CC(C)(O)C1)[C@H](CC(C)(C)C)CO2 (some centres unmarked) [Compound 664] | +++ (+++ is >60%) | < 1 µM |  | 
3 | Cc1cccc(C)c1-c1cc2nc(n1)NS(=O)(=O)c1cccc(c1)C(=O)N(CC1CC(C)(O)C1)[C@H](CC(C)(C)C)CO2 (some centres unmarked) [Compound 665] | +++ (+++ is >60%) | < 1 µM |  | 
4 | Cc1cccc(C)c1-c1cc2nc(n1)NS(=O)(=O)c1cccc(c1)C(=O)N(Cc1cnc(C(C)(C)C)nc1)[C@H](CC(C)(C)C)CO2 [Compound 788] |  |  | +++ (+++ is >600%) | < 1 µM
5 | Cc1cccc(C)c1-c1cc2nc(n1)NS(=O)(=O)c1cccc(c1)C(=O)N(Cc1ccc(Oc3ncccn3)cc1)[C@H](CC(C)(C)C)CO2 [Compound 789] |  |  | +++ (+++ is >600%) | < 1 µM
6 | Cc1cccc(C)c1-c1cc2nc(n1)NS(=O)(=O)c1cccc(c1)C(=O)N(Cc1ccc(C#CC(C)(C)C#N)cc1)[C@H](CC(C)(C)C)CO2 [Compound 790] |  |  | +++ (+++ is >600%) | < 1 µM
7 | Cc1cccc(C)c1-c1cc2nc(n1)NS(=O)(=O)c1cccc(c1)C(=O)N(Cc1ccn3nccc3c1)[C@H](CC(C)(C)C)CO2 [Compound 791] |  |  | +++ (+++ is >600%) | < 1 µM
8 | Cc1cccc(C)c1-c1cc2nc(n1)NS(=O)(=O)c1cccc(c1)C(=O)N(Cc1ccc3c(c1)C(=O)NC3)[C@H](CC(C)(C)C)CO2 [Compound 792] |  |  | +++ (+++ is >600%) | < 1 µM
9 | CCCc1ccc(CN2C(=O)c3cccc(c3)S(=O)(=O)Nc3nc(cc(-c4c(C)cccc4C)n3)OC[C@H]2CC(C)(C)C)cc1 [Compound 793] |  |  | +++ (+++ is >600%) | 
10 | Cc1cccc(C)c1-c1cc2nc(n1)NS(=O)(=O)c1cccc(c1)C(=O)N(C[C@H]1CC[C@@H](C(C)(C)O)CC1)[C@H](CC(C)(C)C)CO2 [Compound 796] |  |  | +++ (+++ is >600%) | < 1 µM
11 | Cc1cccc(C)c1-c1cc2nc(n1)NS(=O)(=O)c1cccc(c1)C(=O)N(CC1CCC(C(C)(C)O)CC1)[C@H](CC(C)(C)C)CO2 (some centres unmarked) [Compound 797] |  |  | +++ (+++ is >600%) | < 1 µM
12 | Cc1cccc(C)c1-c1cc2nc(n1)NS(=O)(=O)c1cccc(c1)C(=O)N(Cc1ccc3c(c1)CC(C)(C)O3)[C@H](CC(C)(C)C)CO2 [Compound 798] |  |  | +++ (+++ is >600%) | < 1 µM
13 | Cc1cccc(C)c1-c1cc2nc(n1)NS(=O)(=O)c1cccc(c1)C(=O)N(Cc1ccc3c(c1)NC(=O)C3)[C@H](CC(C)(C)C)CO2 [Compound 799] |  |  | +++ (+++ is >600%) | < 1 µM
14 | Cc1cccc(C)c1-c1cc2nc(n1)NS(=O)(=O)c1cccc(c1)C(=O)N(CC13CCC(O)(CC1)CC3)[C@H](CC(C)(C)C)CO2 [Compound 800] |  |  | +++ (+++ is >600%) | < 1 µM
15 | Cc1cccc(C)c1-c1cc2nc(n1)NS(=O)(=O)c1cccc(c1)C(=O)N(Cc1ccc(S(F)(F)(F)(F)F)cc1)[C@H](CC(C)(C)C)CO2 [Compound 801] |  |  | +++ (+++ is >600%) | < 1 µM
16 | Cc1cccc(C)c1-c1cc2nc(n1)NS(=O)(=O)c1cccc(c1)C(=O)N(Cc1ccc3c(c1)oc(=O)n3C)[C@H](CC(C)(C)C)CO2 [Compound 802] |  |  | +++ (+++ is >600%) | < 1 µM
17 | Cc1cccc(C)c1-c1cc2nc(n1)NS(=O)(=O)c1cccc(c1)C(=O)N(Cc1nc3ccccc3o1)[C@H](CC(C)(C)C)CO2 [Compound 803] |  |  | +++ (+++ is >600%) | < 1 µM
18 | Cc1cccc(C)c1-c1cc2nc(n1)NS(=O)(=O)c1cccc(c1)C(=O)N(Cc1ncc(F)cn1)[C@H](CC(C)(C)C)CO2 [Compound 804] |  |  | +++ (+++ is >600%) | < 1 µM
19 | Cc1cccc(C)c1-c1cc2nc(n1)NS(=O)(=O)c1cccc(c1)C(=O)N(Cc1ncc(Cl)cn1)[C@H](CC(C)(C)C)CO2 [Compound 805] |  |  | +++ (+++ is >600%) | < 1 µM
20 | Cc1cccc(C)c1-c1cc2nc(n1)NS(=O)(=O)c1cccc(c1)C(=O)N(Cc1ccc(C(F)(F)F)cn1)[C@H](CC(C)(C)C)CO2 [Compound 806] |  |  | +++ (+++ is >600%) | < 1 µM
21 | Cc1cccc(C)c1-c1cc2nc(n1)NS(=O)(=O)c1cccc(c1)C(=O)N(Cc1ncc(Br)cn1)[C@H](CC(C)(C)C)CO2 [Compound 807] |  |  | +++ (+++ is >600%) | < 1 µM
22 | Cc1cccc(C)c1-c1cc2nc(n1)NS(=O)(=O)c1cccc(c1)C(=O)N(CC1Cc3ccccc3C1)[C@H](CC(C)(C)C)CO2 [Compound 808] | +++ (+++ is >60%) | < 1 µM |  | 

Row | SMILES | Ent. B Max Activity (Table 8) | EC50 [1] | Ent. B Max Activity (%) (Table 9) | EC50 (Table 9)
23 | Cc1cccc(C)c1-c1cc2nc(n1)NS(=O)(=O)c1cccc(c1)C(=O)N(Cc1ccc(CC(=O)N(C)C)cc1)[C@H](CC(C)(C)C)CO2 [Compound 845] |  |  | +++ (+++ is >600%) | < 1 µM
24 | CNC(=O)Cc1ccc(CN2C(=O)c3cccc(c3)S(=O)(=O)Nc3nc(cc(-c4c(C)cccc4C)n3)OC[C@H]2CC(C)(C)C)cc1 [Compound 846] |  |  | +++ (+++ is >600%) | < 1 µM
25 | Cc1cccc(C)c1-c1cc2nc(n1)NS(=O)(=O)c1cccc(c1)C(=O)N(Cc1ccc(CC(N)=O)cc1)[C@H](CC(C)(C)C)CO2 [Compound 847] |  |  | +++ (+++ is >600%) | < 1 µM
26 | Cc1cccc(C)c1-c1cc2nc(n1)NS(=O)(=O)c1cccc(c1)C(=O)N(Cc1ccc(CC(C)(C)O)cc1)[C@H](CC(C)(C)C)CO2 [Compound 848] | +++ (+++ is >60%) | < 1 µM |  | 
27 | Cc1cccc(C)c1-c1cc2nc(n1)NS(=O)(=O)c1cccc(c1)C(=O)N(Cc1cc(C(C)(C)O)n(C)n1)[C@H](CC(C)(C)C)CO2 [Compound 849] | +++ (+++ is >60%) | < 1 µM |  | 
28 | Cc1cccc(C)c1-c1cc2nc(n1)NS(=O)(=O)c1cc(n(C)n1)C(=O)N(Cc1cnccn1)[C@H](CC(C)(C)C)CO2 [Compound 921] | +++ (+++ is >60%) | < 1 µM |  | 
29 | CCOC(=O)CCCCN1C(=O)c2cc(nn2C)S(=O)(=O)Nc2nc(cc(-c3c(C)cccc3C)n2)OC[C@H]1CC(C)(C)C [Compound 922] | ++ (++ is 30-60%) | 3 to 30 µM |  | 
30 | Cc1cccc(C)c1-c1cc2nc(n1)NS(=O)(=O)c1cc(n(C)n1)C(=O)N(Cc1ccc(C(C)(C)O)cc1)[C@H](CC(C)(C)C)CO2 [Compound 923] | +++ (+++ is >60%) | < 1 µM |  | 
31 | Cc1cnc(CN2C(=O)c3cc(nn3C)S(=O)(=O)Nc3nc(cc(-c4c(C)cccc4C)n3)OC[C@H]2CC(C)(C)C)nc1 [Compound 924] |  |  | +++ (+++ is >600%) | < 1 µM
32 | Cc1ncc(CN2C(=O)c3cc(nn3C)S(=O)(=O)Nc3nc(cc(-c4c(C)cccc4C)n3)OC[C@H]2CC(C)(C)C)cn1 [Compound 925] | ++ (++ is 30-60%) | < 1 µM |  | 
33 | Cc1cccc(C)c1-c1cc2nc(n1)NS(=O)(=O)c1cc(n(C)n1)C(=O)N(Cc1ccccc1)[C@H](CC(C)(C)C)CO2 [Compound 926] | ++ (++ is 30-60%) | 3 to 30 µM |  | 
34 | Cc1cccc(C)c1-c1cc2nc(n1)NS(=O)(=O)c1cc(nn1C)C(=O)N(Cc1ccc(C(C)(C)O)cc1)[C@H](CC(C)(C)C)CO2 [Compound 927] | ++ (++ is 30-60%) | < 1 µM |  | 
35 | Cc1cccc(C)c1-c1cc2nc(n1)NS(=O)(=O)c1cc(nn1C)C(=O)N(Cc1ccccc1)[C@H](CC(C)(C)C)CO2 [Compound 928] | ++ (++ is 30-60%) | < 1 µM |  | 
36 | Cc1cccc(C)c1-c1cc2nc(n1)NS(=O)(=O)c1cc(n(C)n1)C(=O)N(Cc1ncccn1)[C@H](CC(C)(C)C)CO2 [Compound 929] | +++ (+++ is >60%) | < 1 µM |  | 
37 | Cc1cccc(C)c1-c1cc2nc(n1)NS(=O)(=O)c1cc(n(C)n1)C(=O)N(Cc1ccccn1)[C@H](CC(C)(C)C)CO2 [Compound 930] | +++ (+++ is >60%) | < 1 µM |  | 
38 | Cc1cccc(C)c1-c1cc2nc(n1)NS(=O)(=O)c1cc(nn1C)C(=O)N(Cc1cccnn1)[C@H](CC(C)(C)C)CO2 [Compound 931] | + (+ is <30%) | 1 to 3 µM |  | 
39 | Cc1cccc(C)c1-c1cc2nc(n1)NS(=O)(=O)c1cc(nn1C)C(=O)N(Cc1ccncn1)[C@H](CC(C)(C)C)CO2 [Compound 932] | + (+ is <30%) | < 1 µM |  | 
40 | Cc1cccc(C)c1-c1cc2nc(n1)NS(=O)(=O)c1cc(nn1C)C(=O)N(Cc1cccnc1)[C@H](CC(C)(C)C)CO2 [Compound 933] | + (+ is <30%) |  |  | 
41 | Cc1cccc(C)c1-c1cc2nc(n1)NS(=O)(=O)c1cc(nn1C)C(=O)N(Cc1ccccn1)[C@H](CC(C)(C)C)CO2 [Compound 934] | ++ (++ is 30-60%) | < 1 µM |  | 
42 | COCCCN1C(=O)c2cccc(c2)S(=O)(=O)Nc2nc(cc(-c3c(C)cccc3C)n2)OC[C@H]1CC(C)C [Compound 980] | +++ (+++ is >60%) | < 1 µM |  | 
43 | Cc1cccc(C)c1-c1cc2nc(n1)NS(=O)(=O)c1cccc(c1)C(=O)N(CC1CC(C(C)(C)O)C1)[C@H](CC(C)(C)C)CO2 (some centres unmarked) [Compound 1020] | +++ (+++ is >60%) | < 1 µM |  | 
44 | Cc1cccc(C)c1-c1cc2nc(n1)NS(=O)(=O)c1cccc(c1)C(=O)N(Cc1ncc(C(C)C)cn1)[C@H](CC(C)(C)C)CO2 [Compound 1077] |  |  | +++ (+++ is >600%) | < 1 µM
